Measured values as given in patent US11365187B2, “Pesticidally active pyrazole derivatives” (SYNGENTA PARTICIPATIONS AG, priority 2017, dated 2022).
Like-named read-outs stand apart in the source and are kept apart here.

Columns and labels:
Assay type in all cases: in vivo
[1] = test system: Diabrotica balteata (Corn root worm); test: Diabrotica balteata (Corn root worm) mortality on sprayed maize sprouts; conditions: 96 h, application rate 200 ppm, L2 larvae, assessed 4 days after infestation, read-out: mortality
Description: Diabrotica balteata (Corn root worm):
Maize sprouts placed onto an agar layer in 24-well microtiter plates were treated with aqueous test solutions prepared from 10′000 ppm DMSO stock solutions by spraying. After drying, the plates were infested with L2 larvae (6 to 10 per well). The samples were assessed for mortality 4 days after infestation.

[2] = test system: Euschistus heros (Neotropical Brown Stink Bug); test: Euschistus heros feeding/contact activity on soybean leaves; conditions: 120 h
Description: Euschistus heros (Neotropical Brown Stink Bug): Feeding/contact activity
Soybean leaves on agar in 24-well microtiter plates were sprayed with aqueous test solutions prepared from 10′000 ppm DMSO stock solutions. After drying the leaves were infested with N2 nymphs. The samples were assessed for mortality 5 days after infestation.

[3] = test system: Myzus persicae (Green peach aphid); test: Myzus persicae feeding/contact activity on sunflower leaf discs; conditions: foliar, 144 h
Description: Myzus persicae (Green peach aphid): Feeding/Contact activity
(§1) Sunflower leaf discs were placed onto agar in a 24-well microtiter plate and sprayed with aqueous test solutions prepared from 10′000 ppm DMSO stock solutions. After drying, the leaf discs were infested with an aphid population of mixed ages. The samples were assessed for mortality 6 days after infestation.

[4] = test system: Plutella xylostella (Diamond back moth); test: Plutella xylostella feeding/contact activity on artificial diet; conditions: 120 h
Description: Plutella xylostella (Diamond back moth): Feeding/contact activity
24-well microtiter plates with artificial diet were treated with aqueous test solutions prepared from 10′000 ppm DMSO stock solutions by pipetting. After drying, the plates were infested with L2 larvae (10 to 15 per well). The samples were assessed for mortality 5 days after infestation.

[5] = test system: Spodoptera littoralis (Egyptian cotton leaf worm); test: Spodoptera littoralis feeding/contact activity on cotton leaf discs; conditions: foliar, 72 h
Description: Spodoptera littoralis (Egyptian cotton leaf worm): Feeding/contact activity
Cotton leaf discs were placed onto agar in 24-well microtiter plates and sprayed with aqueous test solutions prepared from 10′000 ppm DMSO stock solutions. After drying the leaf discs were infested with five L1 larvae. The samples were assessed for mortality 3 days after infestation. […] 2, 3, 4, 5, 6, 7, 8, 9, 10, 11, 12, 13, 14, 15, 16, 17, 18, 19, 20, 21, 22, 23, 24, 25, 26, 27, 28 and 29.

[6] = test system: Tetranychus urticae (Two-spotted spider mite); test: Tetranychus urticae feeding/contact activity on bean leaf discs; conditions: foliar, 192 h, read-out: mortality on mixed population (mobile stages)
Description: Tetranychus urticae (Two-spotted spider mite): Feeding/contact activity
Bean leaf discs on agar in 24-well microtiter plates were sprayed with aqueous test solutions prepared from 10′000 ppm DMSO stock solutions. After drying the leaf discs were infested with a mite population of mixed ages. The samples were assessed for mortality on mixed population (mobile stages) 8 days after infestation.

[7] = test system: Thrips tabaci (Onion thrips); test: Thrips tabaci feeding/contact activity on sunflower leaf discs; conditions: foliar, 144 h, application rate 200 ppm, thrips population of mixed ages, assessed 6 days after infestation, read-out: mortality
Description: Thrips tabaci (Onion thrips): Feeding/Contact activity
as §1, with “on” for “onto”, “in” for “in a”, “plates” for “plate”, “drying” for “drying,”, “a thrips” for “an aphid”

[8] = application rate 200 ppm, N2 nymphs, assessed 5 days after infestation, read-out: mortality
[9] = application rate 200 ppm, aphid population of mixed ages, assessed 6 days after infestation, read-out: mortality
[10] = application rate 200 ppm, L2 larvae, assessed 5 days after infestation, read-out: mortality
[11] = application rate 200 ppm, L1 larvae, assessed 3 days after infestation, read-out: mortality
[12] = application rate 200 ppm, mite population of mixed ages, assessed 8 days after infestation

Measured: mortality at 200 ppm

CN(C(=O)c1cc(-c2cnn(-c3c(OC(F)F)c(C(F)(C(F)(F)F)C(F)(F)F)nn3C)c2)ccc1Cl)C1(C#N)CC1 [Example 4, 2-chloro-N-(1-cyanocyclopropyl)-5-[1-[4-(difluoromethoxy)-2-methyl-5-[1,2,2,2-tetrafluoro-1-(trifluoromethyl)ethyl]pyrazol-3-yl]pyrazol-4-yl]-N-methyl-benzamide]
≥ 80%: [1] | [2]; [8] | [3]; [9] | [4]; [10] | [5]; [11] | [6]; [12] | [7]

CCN(C(=O)c1cc(-c2cnn(-c3c(OC(F)F)c(C(F)(C(F)(F)F)C(F)(F)F)nn3C)c2)ccc1Cl)C1(C#N)CC1 [Example 3, 2-chloro-N-(1-cyanocyclopropyl)-5-[1-[4-(difluoromethoxy)-2-methyl-5-[1,2,2,2-tetrafluoro-1-(trifluoromethyl)ethyl]pyrazol-3-yl]pyrazol-4-yl]-N-ethyl-benzamide]
≥ 80%: [1] | [2]; [8] | [3]; [9] | [4]; [10] | [5]; [11] | [6]; [12] | [7]

CCOC(=O)N(C(=O)c1cc(-c2cnn(-c3c(OC(F)F)c(C(F)(C(F)(F)F)C(F)(F)F)nn3C)c2)ccc1Cl)C1CC1 [Example 15, ethyl N-[2-chloro-5-[1-[4-(difluoromethoxy)-2-methyl-5-[1,2,2,2-tetrafluoro-1-(trifluoromethyl)ethyl]pyrazol-3-yl]pyrazol-4-yl]benzoyl]-N-cyclopropyl-carbamate]
≥ 80%: [2] | [3] | [4] | [5] | [6]

COC(=O)N(C(=O)c1cc(-c2cnn(-c3c(OC(F)F)c(C(F)(C(F)(F)F)C(F)(F)F)nn3C)c2)ccc1Cl)C1CC1 [Example 23, methyl N-[2-chloro-5-[1-[4-(difluoromethoxy)-2-methyl-5-[1,2,2,2-tetrafluoro-1-(trifluoromethyl)ethyl]pyrazol-3-yl]pyrazol-4-yl]benzoyl]-N-cyclopropyl-carbamate]
≥ 80%: [2] | [3] | [4] | [5] | [6]

CC(C)OC(=O)N(C(=O)c1cc(-c2cnn(-c3c(OC(F)F)c(C(F)(C(F)(F)F)C(F)(F)F)nn3C)c2)ccc1Cl)C1CC1 [Example 24, isopropyl N-[2-chloro-5-[1-[4-(difluoromethoxy)-2-methyl-5-[1,2,2,2-tetrafluoro-1-(trifluoromethyl)ethyl]pyrazol-3-yl]pyrazol-4-yl]benzoyl]-N-cyclopropyl-carbamate]
≥ 80%: [2] | [3] | [4] | [5] | [6]

Cn1nc(C(F)(C(F)(F)F)C(F)(F)F)c(OC(F)F)c1-n1cc(-c2cnc(Cl)c(C(=O)NC3(C#N)CC3)c2)cn1 [Example 19, 2-chloro-N-(1-cyanocyclopropyl)-5-[1-[4-(difluoromethoxy)-2-methyl-5-[1,2,2,2-tetrafluoro-1-(trifluoromethyl)ethyl]pyrazol-3-yl]pyrazol-4-yl]pyridine-3-carboxamide]
≥ 80%: [1] | [2]; [8] | [3]; [9] | [4]; [10] | [5]; [11] | [6]; [12] | [7]

Cn1nc(C(F)(C(F)(F)F)C(F)(F)F)c(OC(F)F)c1-n1cc(-c2ccc(Cl)c(C(=O)N(C(=O)OCCl)C3(C#N)CC3)c2)cn1 [Example 29, chloromethyl N-[2-chloro-5-[1-[4-(difluoromethoxy)-2-methyl-5-[1,2,2,2-tetrafluoro-1-(trifluoromethyl)ethyl]pyrazol-3-yl]pyrazol-4-yl]benzoyl]-N-(1-cyanocyclopropyl)carbamate]
≥ 80%: [2] | [3] | [4] | [5] | [6]

CC(=O)N(C(=O)c1cc(-c2cnn(-c3c(OC(F)F)c(C(F)(C(F)(F)F)C(F)(F)F)nn3C)c2)ccc1Cl)C1(C#N)CC1 [Example 12, N-acetyl-2-chloro-N-(1-cyanocyclopropyl)-5-[1-[4-(difluoromethoxy)-2-methyl-5-[1,2,2,2-tetrafluoro-1-(trifluoromethyl)ethyl]pyrazol-3-yl]pyrazol-4-yl]benzamide]
≥ 80%: [1] | [2]; [8] | [3]; [9] | [4]; [10] | [5]; [11] | [6]; [12] | [7]

CN(C(=O)c1cc(-c2cnn(-c3c(OC(F)F)c(C(F)(C(F)(F)F)C(F)(F)F)nn3C)c2)ccc1Cl)C1CC1 [Example 25, 2-chloro-N-cyclopropyl-5-[1-[4-(difluoromethoxy)-2-methyl-5-[1,2,2,2-tetrafluoro-1-(trifluoromethyl)ethyl]pyrazol-3-yl]pyrazol-4-yl]-N-methyl-benzamide]
≥ 80%: [2]; [8] | [3]; [9] | [4]; [10] | [5]; [11] | [6]; [12]

Cn1nc(C(F)(C(F)(F)F)C(F)(F)F)c(OC(F)F)c1-n1cc(-c2ccc(Cl)c(C(=O)NC3CC3)c2)cn1 [Example 17, 2-chloro-N-cyclopropyl-5-[1-[4-(difluoromethoxy)-2-methyl-5-[1,2,2,2-tetrafluoro-1-(trifluoromethyl)ethyl]pyrazol-3-yl]pyrazol-4-yl]benzamide]
≥ 80%: [2]; [8] | [3]; [9] | [4]; [10] | [5]; [11] | [6]; [12]

Cn1nc(C(F)(C(F)(F)F)C(F)(F)F)c(OC(F)F)c1-n1cc(-c2ccc(Cl)c(C(=O)NC3(C#N)CC3)c2)cn1 [Example 1, 2-Chloro-N-(1-cyanocyclopropyl)-5-[1-[4-(difluoromethoxy)-2-methyl-5-[1,2,2,2-tetrafluoro-1-(trifluoromethyl)ethyl]pyrazol-3-yl]pyrazol-4-yl]benzamide]
≥ 80%: [1] | [2]; [8] | [3]; [9] | [4]; [10] | [5]; [11] | [6]; [12] | [7]

Cn1nc(C(F)(C(F)(F)F)C(F)(F)F)c(OC(F)F)c1-n1cc(-c2ccc(Cl)c(C(=O)N(CC#N)C3(C#N)CC3)c2)cn1 [Example 11, 2-chloro-N-(1-cyanocyclopropyl)-N-(cyanomethyl)-5-[1-[4-(difluoromethoxy)-2-methyl-5-[1,2,2,2-tetrafluoro-1-(trifluoromethyl)ethyl]pyrazol-3-yl]pyrazol-4-yl]benzamide]
≥ 80%: [2]; [8] | [3]; [9] | [4]; [10] | [5]; [11] | [6]; [12]

CCN(C(=O)c1cc(-c2cnn(-c3c(OC(F)F)c(C(F)(C(F)(F)F)C(F)(F)F)nn3C)c2)ccc1Cl)C1CC1 [Example 26, 2-chloro-N-cyclopropyl-5-[1-[4-(difluoromethoxy)-2-methyl-5-[1,2,2,2-tetrafluoro-1-(trifluoromethyl)ethyl]pyrazol-3-yl]pyrazol-4-yl]-N-ethyl-benzamide]
≥ 80%: [2]; [8] | [3]; [9] | [4]; [10] | [5]; [11] | [6]; [12]
